Values quoted from earlier work, collected in patent US7985754B2, “Selective antagonists of A2A adenosine receptors” (Trovis Pharmaceuticals, LLC, priority 2006, dated 2011).

How the values were obtained:
[1] = in words
[2] = in words; remark: listed apart in the source

bioavailability [1]	solubility [2]	SMILES
poor bioavailability		Nc1nc(NCCc2ccc(O)cc2)nc2nc(-c3ccco3)nn12 [ZM241385]
	very poorly soluble	Nc1nc2c(cnn2CCc2ccccc2)c2nc(-c3ccco3)nn12 [SCH58261]
